How the values were obtained:
wheat = test: Test A preemergence; assay type: in vivo, Triticum aestivum; conditions: Triticum aestivum, pre-emergence, 240 h, read-out: Plant response rating, Wheat
In short: (§1)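 Weeds and crops in loam–sand blend were sprayed preemergence onto soil or postemergence at 2–10 cm (one- to two-leaf stage). Test chemicals were in a non-phytotoxic solvent with surfactant. After 10 days in the greenhouse, injury was rated visually against untreated controls on a 0 (no effect) to 100 (complete control) scale.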

ragweed = test: Test A postemergence; assay type: in vivo, Ambrosia artemisiifolia; conditions: Ambrosia artemisiifolia, post-emergence, 240 h, read-out: Plant response rating, Ragweed
In short: as §1

ryegrass, Italian [1] = test: Test A preemergence; assay type: in vivo, Lolium multiflorum; conditions: Lolium multiflorum, pre-emergence, 240 h, read-out: Plant response rating, Ryegrass, Italian
In short: as §1

blackgrass = test: Test A preemergence; assay type: in vivo, Alopecurus myosuroides; conditions: Alopecurus myosuroides, pre-emergence, 240 h, read-out: Plant response rating, Blackgrass
In short: as §1

ryegrass, Italian [2] = test: Test A postemergence; assay type: in vivo, Lolium multiflorum; conditions: Lolium multiflorum, post-emergence, 240 h, read-out: Plant response rating, Ryegrass, Italian
In short: as §1

ducksalad = test: Test B flooded paddy test; assay type: in vivo, Heteranthera limosa; conditions: Heteranthera limosa, 312 h, 250 g ai/ha, Flood, 13 days, 0 to 100 scale (0 no effect, 100 complete control); read-out: Plant response rating, Ducksalad
In short: (§2)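 2-leaf stage; pots flooded 3 cm over soil; compound dosed into paddy water; depth kept constant. Greenhouse, 13 d. Visual rating vs controls, 0 (no effect)–100 (complete control). Dash = no result.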

corn = test: Test A postemergence; assay type: in vivo, Zea mays; conditions: Zea mays, post-emergence, 240 h
In short: as §1

goosegrass [3] = test: Test A preemergence; assay type: in vivo, Eleusine indica; conditions: Eleusine indica, pre-emergence, 240 h, read-out: Plant response rating, Goosegrass
In short: as §1

goosegrass [4] = test: Test A postemergence; assay type: in vivo, Eleusine indica; conditions: Eleusine indica, post-emergence, 240 h, read-out: Plant response rating, Goosegrass
In short: as §1

sedge, umbrella = test: Test B flooded paddy test; assay type: in vivo, Cyperus difformis; conditions: Cyperus difformis, 312 h; 250 g ai/ha, Flood, 13 days, 0 to 100 scale (0 no effect, 100 complete control); read-out: Plant response rating, Sedge, Umbrella
In short: as §2

kochia = test: Test A preemergence; assay type: in vivo, Bassia scoparia; conditions: Bassia scoparia, pre-emergence, 240 h, read-out: Plant response rating, Kochia
In short: as §1

soybean = test: Test A postemergence; assay type: in vivo, Glycine max; conditions: Glycine max, post-emergence, 240 h, read-out: Plant response rating, Soybean
In short: as §1

foxtail, giant = test: Test A postemergence; assay type: in vivo, Setaria faberi; conditions: Setaria faberi, post-emergence, 240 h, read-out: Plant response rating, Foxtail, Giant
In short: as §1

galium = test: Test A postemergence; assay type: in vivo, Galium aparine; conditions: Galium, post-emergence, 240 h, read-out: Plant response rating, Galium
In short: as §1

[5] = 125 g ai/ha, visual injury after 10 days, 0 to 100 scale, 0 is no effect, 100 is complete control
[6] = 500 g ai/ha, 0 to 100 scale (0 no effect, 100 complete control), 10 days
[7] = 125 g ai/ha, postemergence, 10 days, visual injury, 0 to 100 scale (0 no effect, 100 complete control)
[8] = 500 g ai/ha, Postemergence, 0 to 100 scale

Compound: Cc1cccc2c1O[C@@H](C)CN2C(=O)c1cccc(-n2cnc(Br)n2)c1 [Compound 61, [3-(3-Bromo-1H-1,2,4-triazol-1-yl)phenyl][(2S)-2,3-dihydro-2,8-dimethyl-4H-1,4-benzoxazin-4-yl]methanone]
- plant injury at 125 g/ha (wheat; [5]): 0%
- plant injury at 500 g/ha (wheat; [6]): 20%
- pest or weed control at 125 g/ha (ragweed; [7]): 30%
- pest or weed control at 500 g/ha (ragweed; [8]): 40%
- pest or weed control at 125 g/ha (ryegrass, Italian [1]; [5]): 90%
- pest or weed control at 500 g/ha (ryegrass, Italian [1]; [6]): 100%
- pest or weed control at 125 g/ha (blackgrass; [5]): 50%
- pest or weed control at 500 g/ha (blackgrass; [6]): 70%
- pest or weed control at 125 g/ha (ryegrass, Italian [2]; [7]): 40%
- pest or weed control at 500 g/ha (ryegrass, Italian [2]; [8]): 40%
- pest or weed control at 250 g/ha (ducksalad): 15%
- Corn plant response rating (crop injury, 0 = no effect, 100 = complete kill) at 125 g/ha (corn; [7]): 10%
- Corn plant response rating (crop injury, 0 = no effect, 100 = complete kill) at 500 g/ha (corn; [8]): 10%
- pest or weed control at 125 g/ha (goosegrass [3]; [5]): 90%
- pest or weed control at 500 g/ha (goosegrass [3]; [6]): 90%
- pest or weed control at 125 g/ha (goosegrass [4]; [7]): 10%
- pest or weed control at 500 g/ha (goosegrass [4]; [8]): 50%
- pest or weed control at 250 g/ha (sedge, umbrella): 45%
- pest or weed control at 125 g/ha (kochia; [5]): 20%
- pest or weed control at 500 g/ha (kochia; [6]): 60%
- plant injury at 125 g/ha (soybean; [7]): 100%
- plant injury at 500 g/ha (soybean; [8]): 100%
- pest or weed control at 125 g/ha (foxtail, giant; [7]): 60%
- pest or weed control at 500 g/ha (foxtail, giant; [8]): 80%
- pest or weed control at 125 g/ha (galium; [7]): 70%
- pest or weed control at 500 g/ha (galium; [8]): 100%

— US20260262643A1, “HERBICIDAL BENZOXAZINES” (FMC CORPORATION, priority 2022, published 2026)
